# Laboratory results reported in PubChem BioAssay AID328 (DTP/NCI, 2004).
# Several values for one entry are separate records, joined by “and”; a condition that tells them apart may be missing. Equal values may be shown once. Toxic doses and inconclusive results are not listed.
# Test system: BDF1 mice, P388 leukemia ip, median survival T/C
# Test: NCI In Vivo Anticancer Drug Screen. Data for tumor model P388 Leukemia (intraperitoneal) in B6D2F1 (BDF1) mice
# Conditions: endpoint: median survival time, higher = longer survival
# Summary of the method: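 T/C = treated-group survival ÷ vehicle-control survival; tumour transplanted into mice before dosing.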
# [1] = dose: 100.0 mg/kg/injection, schedule: Q01DX009 (ip), vehicle: saline
# [2] = dose: 200.0 mg/kg/injection, schedule: Q01DX009 (ip), vehicle: saline
# [3] = dose: 400.0 mg/kg/injection, schedule: Q01DX009 (ip), vehicle: saline
# [4] = dose: 12.5 mg/kg/injection, schedule: Q01DX009 (ip), vehicle: saline
# [5] = dose: 50.0 mg/kg/injection, schedule: Q01DX009 (ip), vehicle: saline with Tween-80
# [6] = dose: 100.0 mg/kg/injection, schedule: Q01DX009 (ip), vehicle: saline with Tween-80
# [7] = dose: 200.0 mg/kg/injection, schedule: Q01DX009 (ip), vehicle: saline with Tween-80
# [8] = dose: 50.0 mg/kg/injection, schedule: Q01DX009 (ip), vehicle: Klucel (hydroxypropylcellulose) (HPC)
# [9] = dose: 100.0 mg/kg/injection, schedule: Q01DX009 (ip), vehicle: Klucel (hydroxypropylcellulose) (HPC)
# [10] = dose: 100.0 mg/kg/injection, schedule: Q04DX003 (ip), vehicle: saline with Tween-80
# [11] = dose: 200.0 mg/kg/injection, schedule: Q01DX009 (ip), vehicle: Klucel (hydroxypropylcellulose) (HPC)
# [12] = dose: 200.0 mg/kg/injection, schedule: Q04DX003 (ip), vehicle: saline with Tween-80
# [13] = dose: 400.0 mg/kg/injection, schedule: Q01DX009 (ip), vehicle: Klucel (hydroxypropylcellulose) (HPC)
# [14] = dose: 400.0 mg/kg/injection, schedule: Q04DX003 (ip), vehicle: saline with Tween-80
# [15] = dose: 100.0 mg/kg/injection, schedule: Q01DX001 (ip), vehicle: Klucel (hydroxypropylcellulose) (HPC)
# [16] = dose: 200.0 mg/kg/injection, schedule: Q01DX001 (ip), vehicle: Klucel (hydroxypropylcellulose) (HPC)
# [17] = dose: 400.0 mg/kg/injection, schedule: Q01DX001 (ip), vehicle: Klucel (hydroxypropylcellulose) (HPC)
# [18] = dose: 50.0 mg/kg/injection, schedule: Q01DX009 (ip), vehicle: saline
# [19] = dose: 100.0 mg/kg/injection, schedule: Q04DX003 (ip), vehicle: Klucel (hydroxypropylcellulose) (HPC)
# [20] = dose: 400.0 mg/kg/injection, schedule: Q04DX003 (ip), vehicle: Klucel (hydroxypropylcellulose) (HPC)
# [21] = dose: 25.0 mg/kg/injection, schedule: Q01DX009 (ip), vehicle: saline with Tween-80
compound,measurement,setting,value
C[N+](C)(C)CC[N+](C)(C)C,T/C,[1],93 % of control
same,T/C,"dose: 100.0 mg/kg/injection, schedule: Q04DX003 (ip), vehicle: saline",93 % of control
same,T/C,[2],101 % of control
same,T/C,"dose: 200.0 mg/kg/injection, schedule: Q04DX003 (ip), vehicle: saline",118 % of control
same,T/C,[3],93 % of control
same,T/C,"dose: 400.0 mg/kg/injection, schedule: Q04DX003 (ip), vehicle: saline",107 % of control
Nc1cc(N)cc([N+](=O)[O-])c1,T/C,"dose: 6.25 mg/kg/injection, schedule: Q01DX009 (ip), vehicle: saline",90 % of control
same,T/C,"dose: 6.25 mg/kg/injection, schedule: Q04DX003 (ip), vehicle: saline",100 % of control
same,T/C,[4],86 % of control
same,T/C,"dose: 12.5 mg/kg/injection, schedule: Q04DX003 (ip), vehicle: saline",104 % of control
same,T/C,"dose: 25.0 mg/kg/injection, schedule: Q04DX003 (ip), vehicle: saline",100 % of control
COc1cc(OC)c(/C=C/c2ccncn2)c(OC)c1,T/C,[5],101 % of control
same,T/C,[6],108 % of control
same,T/C,[7],117 % of control
O=C(CC(NC(=O)OCc1ccccc1)C(=O)O)OCc1ccccc1 (configuration not stated),T/C,[8],122 % of control
same,T/C,[9],111 % of control
same,T/C,[10],104 % of control
same,T/C,[11],111 % of control
same,T/C,[12],100 % of control
same,T/C,"dose: 264.0 mg/kg/injection, schedule: Q04DX003 (ip), vehicle: saline with Tween-80",100 % of control
same,T/C,[13],94 % of control
same,T/C,[14],100 % of control and 109 % of control
Cc1ccc(CSc2ssc(=S)c2-c2ccccc2)cc1,T/C,[15],104 % of control
same,T/C,[9],110 % of control
same,T/C,[16],104 % of control
same,T/C,[11],110 % of control
same,T/C,[17],109 % of control
same,T/C,[13],115 % of control
CC(=O)OC(c1nc2ccccc2c(=O)n1C1CC2(OC1=O)c1ccccc1N1C(=O)C(C)N(O)C12)C(C)C (configuration not stated),T/C,"dose: 4.0 mg/kg/injection, schedule: Q01DX009 (ip), vehicle: Klucel (hydroxypropylcellulose) (HPC)",93 % of control
same,T/C,"dose: 8.0 mg/kg/injection, schedule: Q01DX009 (ip), vehicle: Klucel (hydroxypropylcellulose) (HPC)",101 % of control
same,T/C,"dose: 16.0 mg/kg/injection, schedule: Q01DX009 (ip), vehicle: Klucel (hydroxypropylcellulose) (HPC)",110 % of control
same,T/C,"dose: 32.0 mg/kg/injection, schedule: Q01DX009 (ip), vehicle: Klucel (hydroxypropylcellulose) (HPC)",100 % of control
CN(C)C1Cc2ccccc2C1OC(=O)c1ccccc1 (configuration not stated),T/C,[18],103 % of control
same,T/C,[2],91 % of control
Nc1nc(SSc2nc(N)nc3c2ncn3C2CC(O)C(CO)O2)c2ncn(C3CC(O)C(CO)O3)c2n1 (configuration not stated),T/C,[8],150 % of control
same,T/C,[9],100 % of control
O=[N+]([O-])c1ccccc1C=Nc1ccccc1,T/C,[15],100 % of control
same,T/C,[1],105 % of control
same,T/C,[19],100 % of control
same,T/C,[16],104 % of control
same,T/C,[2],90 % of control
same,T/C,"dose: 200.0 mg/kg/injection, schedule: Q04DX003 (ip), vehicle: Klucel (hydroxypropylcellulose) (HPC)",110 % of control
same,T/C,[17],95 % of control
same,T/C,[3],90 % of control
same,T/C,[20],100 % of control
CN(N=O)C(=O)Nc1ccc(C(=O)O)cc1,T/C,"dose: 29.0 mg/kg/injection, schedule: Q04DX003 (ip), vehicle: saline with Tween-80",159 % of control
same,T/C,"dose: 45.0 mg/kg/injection, schedule: Q04DX003 (ip), vehicle: saline with Tween-80",163 % of control
same,T/C,"dose: 66.0 mg/kg/injection, schedule: Q04DX003 (ip), vehicle: saline with Tween-80",170 % of control
same,T/C,[10],250 % of control
same,T/C,"dose: 150.0 mg/kg/injection, schedule: Q04DX003 (ip), vehicle: saline with Tween-80",240 % of control
CCCCCCCCCCNC1CC(OC2CC(O)(C(C)=O)Cc3c(O)c4c(c(O)c32)C(=O)c2c(OC)cccc2C4=O)OC(C)C1O (configuration not stated),T/C,"dose: 3.13 mg/kg/injection, schedule: Q01DX009 (ip), vehicle: water",108 % of control
same,T/C,"dose: 6.25 mg/kg/injection, schedule: Q01DX009 (ip), vehicle: water",103 % of control
O=C(NC(Cl)=C(Cl)Cl)P(=O)(c1ccccc1)c1ccccc1,T/C,"dose: 50.0 mg/kg/injection, schedule: Q01DX005 (ip), vehicle: saline with Tween-80",92 % of control
same,T/C,"dose: 100.0 mg/kg/injection, schedule: Q01DX005 (ip), vehicle: saline with Tween-80",111 % of control
same,T/C,"dose: 200.0 mg/kg/injection, schedule: Q01DX005 (ip), vehicle: saline with Tween-80",95 % of control
CC(O)(CCCCCCCC(C)(O)c1ccccc1)c1ccccc1 (configuration not stated),T/C,"dose: 100.0 mg/kg/injection, schedule: Q01DX001 (ip), vehicle: saline with Tween-80",100 % of control
same,T/C,"dose: 200.0 mg/kg/injection, schedule: Q01DX001 (ip), vehicle: saline with Tween-80",100 % of control
same,T/C,"dose: 400.0 mg/kg/injection, schedule: Q01DX001 (ip), vehicle: saline with Tween-80",100 % of control
CC(NC(C)(C)C)C(=O)c1cccc(Cl)c1 (configuration not stated),T/C,[4],108 % of control
same,T/C,"dose: 25.0 mg/kg/injection, schedule: Q01DX009 (ip), vehicle: saline",112 % of control
same,T/C,[18],105 % of control
CCN(CC)CCCC(C)Nc1c2ccc(C)cc2nc2ccc(OC)cc12 (configuration not stated),T/C,[5],123 % of control
O=C1NC(=O)C(=Cc2cc3c(cc2Br)OCO3)C(=O)N1,T/C,"dose: 75.0 mg/kg/injection, schedule: Q01DX009 (ip), vehicle: saline with Tween-80",123 % of control
same,T/C,[6],124 % of control
same,T/C,"dose: 150.0 mg/kg/injection, schedule: Q01DX009 (ip), vehicle: saline with Tween-80",120 % of control
C/C1=C/C2=CC(C)C[C@@H]2C(=O)[C@]2(C)C(=O)CC(C)(C)[C@H]2CC1=O (some centres not stated),T/C,"dose: 0.12 mg/kg/injection, schedule: Q01DX009 (ip), vehicle: alcohol",106 % of control
same,T/C,"dose: 0.25 mg/kg/injection, schedule: Q01DX009 (ip), vehicle: alcohol",122 % of control
same,T/C,"dose: 1.4 mg/kg/injection, schedule: Q01DX009 (ip), vehicle: alcohol",108 % of control
same,T/C,"dose: 2.2 mg/kg/injection, schedule: Q01DX009 (ip), vehicle: alcohol",110 % of control
C=C1C(=O)OC2/C=C(\C)CC(O)/C=C(/C)CC(OC(=O)C(O)(CO)C(C)S)C12 (configuration not stated),T/C,"dose: 100.0 mg/kg/injection, schedule: Q04DX002 (ip), vehicle: Klucel (hydroxypropylcellulose) (HPC)",120 % of control
same,T/C,"dose: 200.0 mg/kg/injection, schedule: Q04DX002 (ip), vehicle: Klucel (hydroxypropylcellulose) (HPC)",118 % of control
O=C1CSC(c2ccccc2)N1 (configuration not stated),T/C,[9],103 % of control
same,T/C,[19],100 % of control
same,T/C,[11],103 % of control
same,T/C,[13],96 % of control
same,T/C,[20],96 % of control
O=C1CN=C(c2ccccn2)c2cc(Cl)ccc2N1CCO,T/C,[10],105 % of control
same,T/C,[12],110 % of control
same,T/C,[14],115 % of control
Cn1nc(N)c2ncc(C(Cl)(Cl)Cl)nc21,T/C,[21],91 % of control
same,T/C,"dose: 50.0 mg/kg/injection, schedule: Q04DX003 (ip), vehicle: saline with Tween-80",105 % of control
same,T/C,[10],90 % of control
CCOC(=O)NCCc1ccc(OC)c(OC)c1,T/C,[21],109 % of control
same,T/C,[5],124 % of control
same,T/C,[6],89 % of control
same,T/C,[7],106 % of control
same,T/C,"dose: 400.0 mg/kg/injection, schedule: Q01DX009 (ip), vehicle: saline with Tween-80",107 % of control
CCCCCCCCCC(O)CCCCCCCCC,T/C,"dose: 100.0 mg/kg/injection, schedule: Q01DX009 (ip), vehicle: other",100 % of control
same,T/C,"dose: 200.0 mg/kg/injection, schedule: Q01DX009 (ip), vehicle: other",95 % of control
same,T/C,"dose: 400.0 mg/kg/injection, schedule: Q01DX009 (ip), vehicle: other",110 % of control
Cc1c(O)c2c(c(O)c1Cc1ccc(CN)cc1)C(=O)c1ccccc1C2=O,T/C,"dose: 12.5 mg/kg/injection, schedule: Q01DX009 (ip), vehicle: water",90 % of control
same,T/C,"dose: 25.0 mg/kg/injection, schedule: Q01DX009 (ip), vehicle: water",114 % of control
